Results reported in patent US20230407243A1, “GENETIC PLATFORM TO INVESTIGATE THE FUNCTIONS OF BACTERIAL DRUG EFFLUX PUMPS” (priority 2022, published 2023).
Where two headings read alike, the source gives them in different places.

Legend:
Format in all cases: cell-based, Escherichia coli
EKO-35 araC::acrBD408A = test: MIC susceptibility profiling, efflux platform
How it was run: (§1)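 Growth inhibition was scored by OD600, with readings taken before incubation subtracted from those after. Cells were grown in MHB II at 37 °C for 18 h with aeration, against duplicate 2-fold compound series and DMSO-only wells. Inoculum: PBS suspension at OD600 ~1.0 diluted 1/2000.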

EKO-35 araC::acrEF = test: MIC susceptibility profiling, efflux platform; conditions: EKO-35 araC::acrEF compared to EKO-35
How it was run: as §1

EKO-35 araC::emrAB = test: MIC susceptibility profiling, efflux platform
How it was run: as §1

EKO-35 araC::emrKY = test: MIC susceptibility profiling, efflux platform
How it was run: as §1

EKO-35 araC::macAB = test: MIC susceptibility profiling, efflux platform
How it was run: as §1

EKO-35 araC::mdtEF = test: MIC susceptibility profiling, efflux platform; conditions: EKO-35 araC::mdtEF compared to EKO-35
How it was run: as §1

wild-type (WT) K-12-Pore = test: microbe, parasite or virus in culture; conditions: Escherichia coli, technical duplicate
How it was run: (§2)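 E. coli strains carrying a genomically integrated constitutive fhuA ΔC/Δ4L pore were grown 18 h in LB at 37 °C, then diluted 1/2000 in MHB II from OD600 ~1.0. Compounds were tested in duplicate, 2-fold serial titration, for 18 h at 37 °C with shaking. MIC came from OD600 with the pre-incubation background subtracted.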

ΔtolC-Pore = test: microbe, parasite or virus in culture
How it was run: as §2

EKO-35 araC::acrB Pore = test: MIC susceptibility profiling, porinated efflux platform; conditions: EKO-35 araC::acr-B Pore compared to EKO-35-Pore
How it was run: as §2

[1] = tested on: EKO-35 araC::acrBD408A Pore; test: as above
How it was run: as §2

EKO-35 araC::acrD Pore = test: as above; conditions: EKO-35 araC::acrD Pore compared to EKO-35-Pore
How it was run: as §2

EKO-35 araC::acrEF Pore = test: as above; conditions: EKO-35 araC::acrEF Pore compared to EKO-35-Pore
How it was run: as §2

EKO-35 araC::emrAB Pore = test: as above
How it was run: as §2

EKO-35 araC::emrKY Pore = test: as above
How it was run: as §2

EKO-35 araC::macAB Pore = test: as above
How it was run: as §2

EKO-35 araC::mdtBC Pore = test: as above
How it was run: as §2

EKO-35 araC::mdtEF Pore = test: as above; conditions: EKO-35 araC::mdtEF Pore compared to EKO-35-Pore
How it was run: as §2

EKO-35 araC::mexCD Pore = test: as above
How it was run: as §2

CCCCCCCCCCCCOS(=O)(=O)[O-].[Na+] [SDS, sodium dodecyl sulphate]
Fold change of MICs (EKO-35 araC::acrBD408A; EKO-35 araC::acrBD408A compared to EKO-35): 2 fold
MIC (EKO-35 araC::acrBD408A; Escherichia coli, Table 13B, non-porinated, technical duplicate, read-out: Minimum Inhibitory Concentration, EKO-35 araC::acrBD408A): 62.5 µg/mL
Fold change of MICs (EKO-35 araC::acrEF): 32 fold
Fold change of MICs (EKO-35 araC::emrAB; EKO-35 araC::emrAB compared to EKO-35): 4 fold
MIC (EKO-35 araC::emrAB; Escherichia coli, Table 13B, non-porinated, technical duplicate, read-out: Minimum Inhibitory Concentration, EKO-35 araC::emrAB): 125 µg/mL
Fold change of MICs (EKO-35 araC::emrKY; EKO-35 araC::emrKY compared to EKO-35): 2 fold
MIC (EKO-35 araC::emrKY; Escherichia coli, Table 13B, non-porinated, technical duplicate, read-out: Minimum Inhibitory Concentration, EKO-35 araC::emrKY): 62.5 µg/mL
Fold change of MICs (EKO-35 araC::macAB; EKO-35 araC::macAB compared to EKO-35): 1 fold
MIC (EKO-35 araC::macAB; Escherichia coli, Table 13B, non-porinated, technical duplicate, read-out: Minimum Inhibitory Concentration, EKO-35 araC::macAB): 31.2 µg/mL
Fold change of MICs (EKO-35 araC::mdtEF): 32 fold
MIC (wild-type (WT) K-12-Pore; Table 10, with pore, read-out: Minimum inhibitory concentration (MIC), Pore K-12): 1000 µg/mL
MIC (wild-type (WT) K-12-Pore; Table 14A, porinated, read-out: Minimum inhibitory concentration, K-12 (WT)-Pore): 1000 µg/mL
MIC (ΔtolC-Pore; Escherichia coli, 18 h, read-out: Minimum inhibitory concentration, ΔtolC-Pore): 15.6 µg/mL
Minimum inhibitory concentration (MIC), Pore ΔtolC (ΔtolC-Pore; Table 10, with pore, technical duplicate): 15.625 µg/mL
Fold changes of MICs (EKO-35 araC::acrB Pore): 32 fold
Fold changes of MICs ([1]; EKO-35 araC::acrBD408A Pore compared to EKO-35-Pore): 1 fold
MIC ([1]; Escherichia coli, EKO-35 araC::acrBD408A Pore, technical duplicate, read-out: Minimum inhibitory concentration): 31.2 µg/mL
Fold changes of MICs (EKO-35 araC::acrD Pore): 32 fold
Fold changes of MICs (EKO-35 araC::acrEF Pore): 32 fold
Fold changes of MICs (EKO-35 araC::emrAB Pore; EKO-35 araC::emrAB Pore compared to EKO-35-Pore): 4 fold
MIC (EKO-35 araC::emrAB Pore; Escherichia coli, EKO-35 araC::emrAB Pore, technical duplicate, read-out: Minimum inhibitory concentration): 125 µg/mL
Fold changes of MICs (EKO-35 araC::emrKY Pore; EKO-35 araC::emrKY Pore compared to EKO-35-Pore): 1 fold
MIC (EKO-35 araC::emrKY Pore; Escherichia coli, EKO-35 araC::emrKY Pore, technical duplicate, read-out: Minimum inhibitory concentration): 31.2 µg/mL
Fold changes of MICs (EKO-35 araC::macAB Pore; EKO-35 araC::macAB Pore compared to EKO-35-Pore): 1 fold
MIC (EKO-35 araC::macAB Pore; Escherichia coli, EKO-35 araC::macAB Pore, technical duplicate, read-out: Minimum inhibitory concentration): 31.2 µg/mL
Fold changes of MICs (EKO-35 araC::mdtBC Pore; EKO-35 araC::mdtBC Pore compared to EKO-35-Pore): 1 fold
MIC (EKO-35 araC::mdtBC Pore; Escherichia coli, EKO-35 araC::mdtBC Pore, technical duplicate, read-out: Minimum inhibitory concentration): 31.2 µg/mL
Fold changes of MICs (EKO-35 araC::mdtEF Pore): 32 fold
Fold changes of MICs (EKO-35 araC::mexCD Pore; EKO-35 araC::mexCD Pore compared to EKO-35-Pore): 4 fold
MIC (EKO-35 araC::mexCD Pore; Escherichia coli, EKO-35 araC::mexCD Pore, technical duplicate, read-out: Minimum inhibitory concentration): 125 µg/mL
